This experiment deals with T1, hS1P1 (Homo sapiens, UniProt P21453).
T1 construct: expressed in transfected cells
T1 sequence (P21453 whole entry): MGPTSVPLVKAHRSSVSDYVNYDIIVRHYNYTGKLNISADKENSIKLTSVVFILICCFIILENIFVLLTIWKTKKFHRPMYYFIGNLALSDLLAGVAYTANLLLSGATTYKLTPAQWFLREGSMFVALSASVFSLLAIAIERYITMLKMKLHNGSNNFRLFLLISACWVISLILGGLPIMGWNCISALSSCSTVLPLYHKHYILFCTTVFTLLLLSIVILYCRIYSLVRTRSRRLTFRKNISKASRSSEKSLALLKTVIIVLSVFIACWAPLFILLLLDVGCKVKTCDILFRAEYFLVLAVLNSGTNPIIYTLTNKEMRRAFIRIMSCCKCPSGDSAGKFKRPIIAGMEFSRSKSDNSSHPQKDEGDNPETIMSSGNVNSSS
Description: hS1P1 EC50 (S1P receptor Ca2+ flux protocol, FLIPR, CHO K1 Gqi5 cells). The following applies: several values per compound = repeat determinations as printed. The format is cell-based. Here is the method:
S1P receptor activity may also be measured by an SIP receptor (e.g., hS1P1, hS1P3, rS1P1, rS1P3 and parental cell) Ca^2+ Flux protocol as described below: • 1. Material • a. FLIPR buffer: 1x HBSS; 10mM HEPES • b. Cell growth media: • i. human and rat S1P1 and S1P3: F12-Ham's media; 10% FBS (qualified); 1x Pen/Strep/Glu; 300ug/mL Hygromycin; 400ug/mL Geneticin ii. Parental cell: human and rat S1P and S1P3: F12-Ham's media; 10% FBS (qualified); 1x Pen/Strep/Glu; 300ug/mL Hygromycin; • c. Cell seeding media; F12-Ham's media; 10% FBS (Charcoal/dextran stripped); 1x Pen/Strep/Glu; • d. Cell dissociation buffer: Versene from Invitrogen • e. Agonist (SIP) dissolving buffer: 0.4% (w/v) fatty-acid free BSA (Sigma # A8806) in FLIPR buffer • f. FLIPR dye: BD PBX Calcium assay kit; Cat#641077 is composed of Calcium indicator (Cat#850000) and 100x PBX signal enhancer (cat#850001). The 100x PBX signal enhancer is diluted into FLIPR buffer 1:100 and the calcium indicator is then added at 1:1000 ratio. • g. Cell plates (96-well): Greiner Cat#655090 • h. Compound plates (96-well): Costar #3365 • i. S1P stock solution preparation: S1P is purchased from CalBioChem (Catalog # 970471; 1mg vial; custom prep using methanol, & nitrogen gas drying inside glass vial; Storage @ -20°C). Dissolve 1 vial of SIP into 26.4ml of agonist dissolving buffer in a 50ml centrifuge tube; Remove label from bottle of SIP, open and drop entire bottle into tube. Sonicate at 37° for ½ hour. Clear solution of 100µM will result. This stock solution is aliquoted and stored at -80C • 2. Cell line maintenance • a. V5 tags were added at the N-terminus of hS1P1, hS1P3, rS1P1 and rS1P3. All four genes were transfected into CHO K1 cells which stably express Gqi5. • b. hS1P1 and hS1P3 were established as stable clones and rS1P1 and rS1P3 were sorted by anti V5 tag and established as stable pools after sorting. • c. Parental cell line CHO/K1 Gqi5 is used as the control. • d. All the cells are maintained in cell growth media and splitted twice a week using Versene. • e. All the cell lines are used under passage 30. • 3. Assay protocol • a. Cell seeding: Cells are lifted from the flask by Versene and seeded in cell plates at 50K/well in cell seeding media. Cells are grown overnight at 37 degree. • b. Cell loading: Cell seeding media is discarded. Cells are loaded with 50ul of FLIPR dye at RT for 90 min. Signal is stable for up to 5 h after dye loading. • c. Agonist (S1P) preparation: Frozen stock of S1P is thawed out and sonicated at 37c for 30 minutes every time before use. The stock is then diluted into FLIPR buffer at proper concentration. • d. Compound preparation: Compounds are dissolved in DMSO. A 3x, 10 point dilution of the compounds are carried out in DMSO. Then the compounds are diluted into assay buffer133x so that the DMSO concentration is 0.75%. • e. Activity measurement: The fluorescence signal change of the cells upon compound addition is monitored in FLIPRtetra. 25ul of compound is transferred into the cell plates (50ul of FLIPR dye; DMSO concentration: 0.25%). Signal is recorded for 90sec after compound addition. Then 50ul of 500nM SIP is added in the cell plate, and signal is recorded for 90 seconds upon addition. • 4. Data analysis • a. Peak value is calculated for each compound/S1P addition • b. The peak value of S1P at 200nM is used as high control (100%), and the peak value of buffer only is used as low control (0%). • c. Data is normalized against high and low controls using the following equation: POC_S = 100*(RAW-LO)/(HI-LO) [formula] • d. Peak value is plotted against the concentration of compound. • e. Curve is fitted using the 4 parameter fit: Y = (A+(B/(1+(((x/C))^(∧)D)))) [formula] where: Y is POC_S (or POC) • X is compound concentration • A is the minimum (EC50min or IC50min) • B is the maxmum (EC50max or IC50max) • C is the inflection point (EC50IP or IC50IP) • D is the hill slope (EC50 slope or IC50 slope).
On the technique in general: Calcium assays in cells follow changes in intracellular calcium, usually with a dye or a luminescent sensor.
For `O=C(O)C1CN(Cc2ccc(-c3cc4cc(Sc5ccccc5)ccc4o3)c(F)c2)C1` [Reference Compound 64], it took 142 nM to reach a half-maximal effect (EC50). `O=C(O)C1CN(Cc2ccc(-c3cc4cc([S+]([O-])c5ccccc5)ccc4o3)c(F)c2)C1` (stereo not drawn) [Reference Compound 65] displayed a concentration for a half-maximal effect (EC50) of 67 nM. With `O=C(O)C1CN(Cc2ccc(-c3cc4cc(COCC5CC5)ccc4o3)c(F)c2)C1` [Reference Compound 66] the figure was 75 nM. Under `O=C(O)C1CN(Cc2ccc(-c3cc4cc(COC5CCC5)ccc4o3)c(F)c2)C1` [Reference Compound 67, 1-(4-(5-(Cyclobutoxymethyl)benzofuran-2-yl)-3-fluoro-benzyl)azetidine-3-carboxylic acid] stands 25 nM; under `O=C(O)C1CN(Cc2ccc(-c3cc4ccccc4o3)c(F)c2)C1` [Reference Compound 68, 1-(4-(benzofuran-2-yl)-3-fluoro-benzyl)azetidine-3-carboxylic acid], 706 nM. With `O=C(O)C1CN(Cc2ccc(-c3cc4cc(COc5ccccc5)ccc4o3)c(F)c2)C1` [Reference Compound 69, 1-(3-Fluoro-4-(5-(phenoxymethyl)benzofuran-2-yl)benzyl)azetidine-3-carboxylic acid] the figure was 87 nM; with `O=C(O)C1CN(Cc2ccc(-c3cc4cc(COC5CCCCC5)ccc4o3)c(F)c2)C1` [Reference Compound 70], 91 nM. With `O=C(O)C1CN(Cc2ccc(-c3cc4cc(Cc5ccc(F)cc5)ccc4o3)c(F)c2)C1` [Reference Compound 73, 1-(3-fluoro-4-(5-(4-fluorobenzyl)benzofuran-2-yl)benzyl)azetidine-3-carboxylic acid], the response was half-maximal at 53 nM (EC50). With `O=C(O)C1CN(Cc2ccc(-c3cc4cc(CC5CCCCC5)ccc4o3)c(F)c2)C1` [Reference Compound 74, 1-(4-(5-(Cyclohexylmethyl)benzofuran-2-yl)-3-fluorobenzyl)azetidine-3-carboxylic acid] the figure was 400 nM; with `O=C(O)C1CN(Cc2ccc(-c3cc4cc(Cc5ccccc5F)ccc4o3)c(F)c2)C1` [Reference Compound 75, 1-(3-Fluoro-4-(5-(2-fluorobenzyl)benzofuran-2-yl)benzyl)azetidine-3-carboxylic acid], 129 nM; with `O=C(O)C1CN(Cc2ccc(-c3cc4cc(Cc5cccc(F)c5)ccc4o3)c(F)c2)C1` [Reference Compound 76, 1-(3-Fluoro-4-(5-(3-fluorobenzyl)benzofuran-2-yl)benzyl)azetidine-3-carboxylic acid], 169 nM. The compound `O=C(O)C1CN(Cc2ccc(-c3cc4cc(Oc5ccccc5)ccc4o3)c(F)c2)C1` [Reference Compound 77, 1-(3-Fluoro-4-(5-phenoxybenzofuran-2-yl)benzyl)azetidine-3-carboxylic acid] yielded an EC50 of 13 nM. Under `Fc1cc(CN2CC(c3nn[nH]n3)C2)ccc1-c1cc2cc(Cc3ccccc3)ccc2o1` [Reference Compound 78, 5-(1-(4-(5-Benzylbenzofuran-2-yl)-3-fluorobenzyl)azetidin-3-yl)-2H-tetrazole] stands 2090 nM; under `O=C(O)C1CN(Cc2ccc(-c3ccc4oc(Cc5ccccc5)cc4c3)c(F)c2)C1` [Reference Compound 80, 1-(4-(2-Benzylbenzofuran-5-yl)-3-fluorobenzyl)azetidine-3-carboxylic acid], 59 nM.

`O=C(O)C1CN(Cc2ccc(-c3cc4cc(Cc5ccccc5)ccc4s3)c(F)c2)C1` [Reference Compound 81, 1-(4-(5-Benzylbenzo[b]thiophen-2-yl)-3-fluorobenzyl)azetidine-3-carboxylic acid] displayed a 50% effective concentration (EC50) of 11 nM. Under `CC(CNCc1ccc(-c2cc3cc(Cc4ccccc4)ccc3o2)c(F)c1)C(=O)O` (stereo not drawn) [Reference Compound 82, 3-(4-(5-Benzylbenzofuran-2-yl)-3-fluorobenzylamino)-2-methylpropanoic acid] stands 1300 nM; under `NC(=O)CC(NCc1ccc(-c2cc3cc(Cc4ccccc4)ccc3o2)c(F)c1)C(=O)O` (stereo not drawn) [Reference Compound 83, 4-Amino-2-(4-(5-benzylbenzofuran-2-yl)-3-fluorobenzylamino)-4-oxobutanoic acid], 2300 nM; under `O=C(O)C1CN(Cc2cnc(-c3cc4cc(Cc5ccccc5)ccc4o3)c(F)c2)C1` [Reference Compound 84, 1-((6-(5-Benzylbenzofuran-2-yl)-5-fluoropyridin-3-yl)methyl)azetidine-3-carboxylic acid], 470 nM. With `NC(=O)C(CC(=O)O)NCc1ccc(-c2cc3cc(Cc4ccccc4)ccc3o2)c(F)c1` (stereo not drawn) [Reference Compound 85, 4-Amino-3-(4-(5-benzylbenzofuran-2-yl)-3-fluorobenzylamino)-4-oxobutanoic acid] the figure was 1880 nM.

`Cc1ccc(Cc2ccc3oc(-c4ccc(CN5CC(C(=O)O)C5)cc4F)cc3c2)cc1` [Reference Compound 86, 1-(3-Fluoro-4-(5-(4-methylbenzyl)benzofuran-2-yl)benzyl)azetidine-3-carboxylic acid] had a half-maximal effective concentration (EC50) of 12 nM.

Compound `O=C(O)C1CN(Cc2ccc(-n3cc4cc(Cc5ccccc5)ccc4n3)c(F)c2)C1` [Reference Compound 87, 1-(4-(5-Benzyl-2H-indazol-2-yl)-3-fluorobenzyl)azetidine-3-carboxylic acid] returned an EC50 of 94 nM. Under `O=C(O)C1(O)CN(Cc2ccc(-c3cc4cc(Cc5ccccc5)ccc4o3)c(F)c2)C1` [Reference Compound 88, 1-((4-(5-Benzylbenzofuran-2-yl)-3-fluorophenyl)methyl)-3-hydroxyazetidine-3-carboxylic acid] stands 105 nM. With `O=C(O)C1(O)CN(Cc2ccc(-c3nc4cc(Cc5ccccc5)ccc4s3)c(F)c2)C1` [Reference Compound 89, 1-((4-(5-Benzylbenzo[d]thiazol-2-yl)-3-fluorophenyl)methyl)-3-hydroxyazetidine-3-carboxylic acid] the figure was 27 nM. Under `CC(c1ccccc1)c1ccc2oc(-c3ccc(CN4CC(C(=O)O)C4)cc3F)cc2c1` (stereo not drawn) [Reference Compound 90, 1-((3-Fluoro-4-(5-(1-phenylethyl)benzofuran-2-yl)phenyl)methyl)azetidine-3-carboxylic acid] stands 99 nM.

`O=C(O)C1CN(Cc2ccc(-c3cc4cc(C(F)(F)c5ccccc5)ccc4o3)c(F)c2)C1` [Reference Compound 91, 1-((4-(5-(Difluoro(phenyl)methyl)benzofuran-2-yl)-3-fluorophenyl)methyl)azetidine-3-carboxylic acid]: the concentration for a half-maximal effect (EC50) was 13 nM.

Compound `O=C(O)C1CN(Cc2ccc(-c3cc4ccc(Cc5ccccc5)cc4o3)c(F)c2)C1` [Reference Compound 92, 1-((4-(6-Benzylbenzofuran-2-yl)-3-fluorophenyl)methyl)azetidine-3-carboxylic acid] returned a concentration giving a half-maximal response (EC50) of 7 nM. Under `O=C(O)C1CN(Cc2ccc(-c3cc4cc(Cc5ccccn5)ccc4o3)c(F)c2)C1` [Reference Compound 93, 1-((3-Fluoro-4-(5-(pyridin-2-ylmethyl)benzofuran-2-yl)phenyl)methyl)azetidine-3-carboxylic acid] stands 31 nM.

As a reminder, the EC50 is the concentration needed to bring the measured effect to its halfway point. A higher EC50 goes with weaker potency.

These data come from patent publication EP2364976B1, “S1P receptor modulating compounds and use thereof” (EPIX Pharmaceuticals, Inc., priority 2007, dated 2007).
